These are literature values, as cited in patent US9511078B2, “Self-nanoemulsion of poorly soluble drugs” (Kashiv Pharma, LLC, priority 2013, dated 2016).

The conditions of data set [1]: high-fat meal (57% fat, 825 calories).

Molecules are shown by their SMILES.

As a reminder, the Log P is the decadic logarithm of the partition coefficient of the neutral form, usually between octanol and water. `CC(=O)[C@H]1CC[C@H]2[C@@H]3CCC4=CC(=O)CC[C@]4(C)[C@H]3CC[C@]12C` [Progesterone, pregn-4-ene-3,20-dione]: the “Log P” value is recorded as 3.5.

Take `CC(=O)O[C@H]1CC[C@@]2(C)C(=CC[C@@H]3[C@@H]2CC[C@]2(C)C(c4cccnc4)=CC[C@@H]32)C1` [Abiraterone acetate]: in data set [1], the “Abiraterone AUC0-∞, fold higher with food” value is reported as approximately 10 fold and the “Abiraterone Cmax, fold higher with food” value is “approximately 17 fold”.
